{
  "source": "paper PMC6668346",
  "about": "(Journal of medicinal chemistry, 2018)",
  "note": "Values joined by “and” are separate entries in the source; they are usually repeats but may differ in a detail not shown here. Equal values may be shown once.",
  "data": [
    {"system": "LAT1", "test": "not given", "settings": "Xenopus laevis oocytes; cited from earlier work", "units": {"Km": "µM"}, "values": [
      {"compound": "N[C@@H](Cc1ccccc1)C(=O)O", "note": "[Compound 50, L-phenylalanine, reference compound]", "Km": 14.2},
      {"compound": "N[C@H](Cc1ccccc1)C(=O)O", "note": "[Compound 50-D, D-Phe]", "Km": 121}
    ]},
    {"molecular_target": "T1, human LAT1 (Homo sapiens, UniProt Q01650)", "T1 sequence (Q01650 whole entry)": "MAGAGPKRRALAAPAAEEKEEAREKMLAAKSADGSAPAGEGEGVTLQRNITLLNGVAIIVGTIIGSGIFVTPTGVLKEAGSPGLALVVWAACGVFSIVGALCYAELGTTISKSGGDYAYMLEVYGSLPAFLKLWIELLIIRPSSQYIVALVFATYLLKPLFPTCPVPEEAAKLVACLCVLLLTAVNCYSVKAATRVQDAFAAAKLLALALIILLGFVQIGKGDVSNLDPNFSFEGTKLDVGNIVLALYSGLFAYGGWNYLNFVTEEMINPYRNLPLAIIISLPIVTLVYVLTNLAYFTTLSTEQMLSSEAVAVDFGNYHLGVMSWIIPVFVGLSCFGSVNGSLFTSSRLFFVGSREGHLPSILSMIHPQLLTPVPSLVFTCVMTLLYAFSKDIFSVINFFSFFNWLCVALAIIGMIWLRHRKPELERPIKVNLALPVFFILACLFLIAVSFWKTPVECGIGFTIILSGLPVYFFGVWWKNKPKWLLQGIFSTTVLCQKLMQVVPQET", "T1 sequence (P08195 102-630 partner)": "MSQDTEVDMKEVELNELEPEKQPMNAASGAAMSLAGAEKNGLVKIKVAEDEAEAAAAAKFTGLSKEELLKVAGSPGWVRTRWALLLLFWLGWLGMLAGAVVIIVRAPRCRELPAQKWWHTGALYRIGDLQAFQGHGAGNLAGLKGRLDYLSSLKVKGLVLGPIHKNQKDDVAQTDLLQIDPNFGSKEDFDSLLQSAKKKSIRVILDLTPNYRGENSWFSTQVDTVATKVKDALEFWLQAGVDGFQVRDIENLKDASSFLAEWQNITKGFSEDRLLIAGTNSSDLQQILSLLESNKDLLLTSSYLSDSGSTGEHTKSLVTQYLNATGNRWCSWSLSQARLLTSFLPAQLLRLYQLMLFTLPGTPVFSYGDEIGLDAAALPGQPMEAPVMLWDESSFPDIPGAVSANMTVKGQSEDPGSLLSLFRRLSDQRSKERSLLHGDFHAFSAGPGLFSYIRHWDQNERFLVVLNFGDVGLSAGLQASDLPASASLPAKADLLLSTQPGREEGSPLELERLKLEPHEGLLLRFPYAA", "test": "cis-inhibition assay: inhibition of [3H]-gabapentin uptake into HEK-hLAT1 cells", "assay_type": "cell-based", "settings": "L vs D isomer", "units": {"selectivity for the L isomers in cis-inhibition assay": "fold"}, "values": [
      {"compound": "N[C@@H](Cc1c[nH]cn1)C(=O)O", "note": "[Compound 53, L-histidine]", "selectivity for the L isomers in cis-inhibition assay": "> 20"},
      {"compound": "CC[C@H](C)[C@H](N)C(=O)O", "note": "[Compound 47, L-Ile]", "selectivity for the L isomers in cis-inhibition assay": "> 20"},
      {"compound": "CC(C)[C@H](N)C(=O)O", "note": "[Compound 49, L-Val]", "selectivity for the L isomers in cis-inhibition assay": "> 20"}
    ]},
    {"molecular_target": "T1, human LAT1", "test": "cis-inhibition assay: inhibition of [3H]-gabapentin uptake into HEK-hLAT1 cells", "assay_type": "cell-based", "settings": "cis-inhibition", "values": [
      {"compound": "N[C@@H](Cc1cccc(-c2ccccc2)c1)C(=O)O", "note": "[Compound 70]", "LAT1 ligand potency / affinity (in words)": "the most potent ligands"},
      {"compound": "N[C@@H](Cc1cccc(Cc2ccccc2)c1)C(=O)O", "note": "[Compound 69]", "LAT1 ligand potency / affinity (in words)": "the most potent ligands"}
    ]},
    {"molecular_target": "T1, human LAT1", "test": "not given", "assay_type": "cell-based", "settings": "200 μM, 3 min; average of seven experiments", "values": [
      {"compound": "N[C@@H](Cc1ccccc1)C(=O)O", "note": "[Compound 50, L-phenylalanine, reference compound]", "efflux rate of [3H]-gabapentin": "2.7 fmol/min and 2.7 ± 0.3 fmol/min"}
    ]},
    {"molecular_target": "T1, human LAT1", "test": "not given", "assay_type": "cell-based", "settings": "based on trans-stimulation assay", "values": [
      {"compound": "COC(=O)c1cc(C)cc(C[C@H](N)C(=O)O)c1", "note": "[Compound 63]", "LAT1 substrate activity (in words)": "lost activity relative to their parent compounds"},
      {"compound": "N[C@@](Cc1ccccc1)(Cc1c[nH]cn1)C(=O)O", "note": "[Compound 107]", "LAT1 substrate activity (in words)": "inactive"},
      {"compound": "NCc1cccc(C[C@H](N)C(=O)O)c1", "note": "[Compound 74]", "LAT1 substrate activity (in words)": "LAT1 substrates"},
      {"compound": "N[C@@H](Cc1cn(Cc2ccccc2)cn1)C(=O)O", "note": "[Compound 59, benzyl histidine]", "LAT1 substrate activity (in words)": "substrates"},
      {"compound": "CC(N)(Cc1ccccc1)C(=O)O", "note": "(stereo in doubt) [Compound 92-D, α-methyl phenylalanine]", "LAT1 substrate activity (in words)": "substrates"},
      {"compound": "N[C@@H](CCC(=O)O)C(=O)O", "note": "[Compound 57, L-Glu, reference compound]", "LAT1 substrate activity (in words)": "none of which were LAT1 substrates"},
      {"compound": "COC(=O)c1cccc(C[C@@H](N)C(=O)O)c1", "note": "[Compound 79-D]", "LAT1 substrate activity (in words)": "potentially not a substrate"},
      {"compound": "N[C@@H](Cc1cccc(C(=O)OCCO)c1)C(=O)O", "note": "[Compound 82]", "LAT1 substrate activity (in words)": "substrates of LAT1"},
      {"compound": "NCCCC[C@H](N)C(=O)O", "note": "[Compound 55, L-Lys, reference compound]", "LAT1 substrate activity (in words)": "none of which were LAT1 substrates"},
      {"compound": "CC(C)(C)OC(=O)c1cccc(C[C@H](N)C(=O)O)c1", "note": "[Compound 81]", "LAT1 substrate activity (in words)": "substrates of LAT1"},
      {"compound": "N[C@@H](Cc1cccc(CC(=O)O)c1)C(=O)O", "note": "[Compound 84]", "LAT1 substrate activity (in words)": "nonsubstrates"},
      {"compound": "CSCC[C@@](N)(Cc1ccccc1)C(=O)O", "note": "[Compound 98-D]", "LAT1 substrate activity (in words)": "lost all activity"},
      {"compound": "N[C@@H](Cc1cccc(C(=O)O)c1)C(=O)O", "note": "[Compound 83]", "LAT1 substrate activity (in words)": "LAT1 substrates"},
      {"compound": "C[C@](N)(Cc1ccccc1)C(=O)O", "note": "[Compound 92, α-methyl phenylalanine]", "LAT1 substrate activity (in words)": "substrates"},
      {"compound": "Cc1cc(C[C@H](N)C(=O)O)cc(C(=O)O)c1", "note": "[Compound 64]", "LAT1 substrate activity (in words)": "lost activity relative to their parent compounds"},
      {"compound": "NC(Cc1ccccc1)(Cc1ccccc1)C(=O)O", "note": "[Compound 93]", "LAT1 substrate activity (in words)": "inactive"}
    ]}
  ]
}
